Among the test systems are K-562 leukemia; LOX IMVI melanoma; SK-OV-3 ovarian; M14 melanoma; EKVX NSCLC; HCC-2998 colon; OVCAR-4 ovarian; SF-268 CNS; SR leukemia; RXF 393 renal.
Holding throughout (experiment): NCI anticancer screen, dose series, 48 h

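The compound was tested at five concentrations on cells cultured in 96-well plates, with a 48-hour exposure period. GI50: concentration for 50% inhibition of growth. TGI denotes the concentration required for complete inhibition of growth.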

On to `CN(/N=C/c1ccc(Cl)c(Cl)c1)C1=NCCN1`, for which the TGI with K-562 leukemia is more than 100 µM; with LOX IMVI melanoma, 27.7 µM; in the assay on SK-OV-3 ovarian, 81.8 µM; with M14 melanoma, 31.6 µM; in the assay on EKVX NSCLC, more than 100 µM; in the assay on HCC-2998 colon, 75.2 µM. Moreover, the results for the TGI with OVCAR-4 ovarian, in the assay with SF-268 CNS and in the assay with SR leukemia were more than 100 µM, more than 100 µM and 86.7 µM, respectively.
With `CCOC(=O)CCC(NC(=O)c1ccc(NCc2ccc3nc(-c4ccccc4)c(Cl)nc3c2)c2ccccc12)C(=O)OCC` (stereo not drawn), the TGI in the assay on K-562 leukemia, with LOX IMVI melanoma, in the assay with SK-OV-3 ovarian, with M14 melanoma, with EKVX NSCLC and in the assay with HCC-2998 colon was more than 100 µM each time. Also, the TGI with OVCAR-4 ovarian, in the assay with SF-268 CNS and in the assay with RXF 393 renal was more than 100 µM each time.
Consider `OC1(c2ccc(Cl)cc2)c2ccccc2C2=NCc3ccccc3CN21` (stereo not drawn), for which the TGI in the assay with K-562 leukemia is more than 58 µM; in the assay on LOX IMVI melanoma it was 24.3 µM; in the assay with SK-OV-3 ovarian it was 21.2 µM; in the assay with M14 melanoma, 8.08 µM; with EKVX NSCLC it was 20.6 µM; with HCC-2998 colon it was 5.13 µM. In addition, the TGI was 25.6 µM with OVCAR-4 ovarian, 25.3 µM with SF-268 CNS and more than 56.3 µM with SR leukemia.
For the compound `CC12CCC(C1)C(C)(C)C2OC(=O)c1ccccc1C(=O)O` (stereo not drawn), the TGI with K-562 leukemia, in the assay with LOX IMVI melanoma, in the assay on SK-OV-3 ovarian, with M14 melanoma, with EKVX NSCLC and in the assay with HCC-2998 colon was more than 100 µM each time. For the same compound, the TGI with OVCAR-4 ovarian, with SF-268 CNS and in the assay with RXF 393 renal was more than 100 µM throughout.
For the compound `O=C(NNCc1ccccc1O)c1ccccc1O`, the TGI was more than 100 µM with K-562 leukemia; more than 100 µM in the assay with LOX IMVI melanoma; 68.6 µM with SK-OV-3 ovarian; 24.2 µM in the assay with M14 melanoma; more than 100 µM in the assay with EKVX NSCLC; 45.1 µM in the assay with HCC-2998 colon. Also, the TGI with OVCAR-4 ovarian and with RXF 393 renal was more than 100 µM in each case.
Turning to `CC(C)=CCC/C(C)=C/CC/C(C)=C/CSc1ccc(Cl)cc1C(=O)O`, the TGI in the assay on K-562 leukemia turned out to be 64.9 µM; with LOX IMVI melanoma, 32 µM; in the assay on SK-OV-3 ovarian, 31.1 µM; in the assay on M14 melanoma, 36.5 µM; in the assay with EKVX NSCLC, 37 µM; with HCC-2998 colon, 34.7 µM. In addition, the values for the TGI in the assay with OVCAR-4 ovarian, in the assay on SF-268 CNS and in the assay on RXF 393 renal were 86.8 µM, 32.7 µM and 44.6 µM, respectively.
In the case of `C/C(=N\n1c(Cc2ccccc2)n[nH]c1=O)c1ccc([N+](=O)[O-])cc1`, the TGI is more than 100 µM in the assay with K-562 leukemia; more than 100 µM in the assay on LOX IMVI melanoma; more than 100 µM in the assay with M14 melanoma; more than 100 µM in the assay with EKVX NSCLC; more than 100 µM in the assay with OVCAR-4 ovarian; 57.2 µM with RXF 393 renal.
With `CN1CCN(c2c(O)c3c(c(O)c2Cl)C(=O)C=CC3=O)CC1`, the TGI in the assay with K-562 leukemia was 0.659 µM; in the assay on LOX IMVI melanoma, 1.66 µM; with SK-OV-3 ovarian, 8.34 µM; in the assay on M14 melanoma it was 0.843 µM; in the assay with EKVX NSCLC, 3.04 µM; in the assay on HCC-2998 colon, 3.99 µM. The TGI with OVCAR-4 ovarian stood at 1.37 µM; in the assay with SF-268 CNS it was 3.72 µM; in the assay with RXF 393 renal it was 0.602 µM.
As to `CC(C)C[C@H](NC(=O)[C@H](CCc1ccccc1)NC(=O)c1ccc2ccccc2n1)B(O)O`, the TGI with K-562 leukemia was more than 100 µM; in the assay with LOX IMVI melanoma it was 0.247 µM; in the assay on SK-OV-3 ovarian, 10.2 µM; in the assay on M14 melanoma, 0.0289 µM; in the assay on EKVX NSCLC, 3.27 µM; in the assay on HCC-2998 colon it was 0.149 µM. The values for the TGI with OVCAR-4 ovarian, in the assay on SF-268 CNS and with RXF 393 renal were 3.09 µM, 0.397 µM and less than 0.017 µM, respectively.
For `c1ccc2nn(C3CCCCO3)nc2c1` (stereo not drawn), the TGI with K-562 leukemia, in the assay on SK-OV-3 ovarian, with M14 melanoma, in the assay on EKVX NSCLC, in the assay on HCC-2998 colon and with OVCAR-4 ovarian was more than 100 µM each time. Further, the TGI in the assay on SF-268 CNS, in the assay on RXF 393 renal and in the assay on SR leukemia was more than 100 µM each time.
Take `C/C(=C/c1c(C)[nH]c(=O)[nH]c1=O)C(=O)O`: the TGI was more than 1380 µM in the assay on K-562 leukemia; more than 1380 µM in the assay with LOX IMVI melanoma; more than 1370 µM in the assay on SK-OV-3 ovarian; more than 1380 µM in the assay with EKVX NSCLC; more than 1380 µM with HCC-2998 colon; more than 1380 µM with OVCAR-4 ovarian. The TGI with SF-268 CNS and with RXF 393 renal was more than 1380 µM each time. For the same compound, in the assay on EKVX NSCLC, the GI50 was 1030 µM.
Consider `CC(C)(Oc1ccc(C(=O)c2ccc(Cl)cc2)cc1Cl)C(=O)N1CCN(c2ccccc2)CC1`, for which the TGI with K-562 leukemia, with LOX IMVI melanoma, in the assay with SK-OV-3 ovarian, in the assay on M14 melanoma, in the assay with EKVX NSCLC and in the assay with SF-268 CNS was more than 100 µM throughout. This compound registered a TGI in the assay on SR leukemia of more than 100 µM.
For the compound `O=C(CC(=O)Nc1ccccc1Cl)NNC(Sc1ccccc1)c1cc(N=Nc2ccc(Br)cc2)ccc1O` (stereo not drawn), the TGI was 6.63 µM in the assay with K-562 leukemia; 3.15 µM with LOX IMVI melanoma; more than 10 µM in the assay with SK-OV-3 ovarian; 2.68 µM with M14 melanoma; more than 10 µM with EKVX NSCLC; more than 10 µM in the assay with HCC-2998 colon. In addition, the TGI in the assay with OVCAR-4 ovarian was 5.98 µM; with SF-268 CNS it was more than 10 µM; in the assay on RXF 393 renal, 5.82 µM.
For `C1=C[C@]2(CCC13OCCO3)COc1ccccc12`, the TGI with K-562 leukemia is more than 100 µM; in the assay on LOX IMVI melanoma it was 59 µM; in the assay with SK-OV-3 ovarian, more than 100 µM; with M14 melanoma, more than 100 µM; in the assay on EKVX NSCLC, more than 100 µM; in the assay with HCC-2998 colon, more than 100 µM. The TGI in the assay with OVCAR-4 ovarian and in the assay with SR leukemia was more than 100 µM each time.
Regarding `CC(CC(C)(C)[N+](C)(C)C)[N+](C)(C)C` (stereo not drawn), the TGI in the assay with K-562 leukemia, in the assay with SK-OV-3 ovarian, in the assay with M14 melanoma, in the assay with EKVX NSCLC, in the assay with HCC-2998 colon and with OVCAR-4 ovarian was more than 100 µM in each case. Further, the TGI with SF-268 CNS, in the assay on RXF 393 renal and with SR leukemia was more than 100 µM each time.

The record behind these values is PubChem BioAssay (NCI).
